Test results reported in patent US20240287070A1, “FUSED HETEROCYCLIC DERIVATIVES” (Janssen Sciences Ireland Unlimited Company, priority 2021, published 2024).

Columns and labels:
[1] = test system: HBV (HepG2.117 cell line, inducibly HBV producing); assay: Anti-HBV activity, intracellular HBV DNA by real-time PCR in HepG2.117 cell line; type: cell-based, hepatitis B virus; settings: HepG2.117 cells, 3 days of treatment
Method in brief: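 Antiviral effect is expressed through intracellular HBV DNA levels, determined by real-time PCR with a virus-specific probe. These levels were measured after 3 days of treatment with compound dilutions, in HepG2.117 cells induced to replicate HBV.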

[2] = test system: HepG2 or HepG2.117 cells; assay: Cytotoxicity, ATPlite Luminescence Assay; type: cell-based, human; settings: 3-days incubation unless marked with *
Method in brief: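 Incubate with compound for 3 or 4 days, then assess cell viability via ATPlite luminescence.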

[3] = Human liver microsome stability; type: in vitro ADME; settings: 1 μM compound, NADPH 1 mM, 37° C., 0-60 min; for HLM Metabolism t1/2: pooled human liver microsomes 0.5 mg/mL
Method in brief: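 Half-life came from elimination rate constant (negative slope of ln compound/internal standard area ratio over time), measured by cassette LC-MS after acetonitrile quench. Human liver microsome reactions, one replicate per compound, were initiated with NADPH (1 mM final) and sampled at six points up to 60 min.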

SMILES	EC50 [1]	CC50 [2]	HLM Metabolism t1/2 [3]	half-life at 1 μM ([3]; human, pooled human liver microsomes, pH 7.4, pooled human liver microsomes 0.5 mg/mL, read-out: HLM Metabolism t1/2)
CC(c1ccccn1)N1C[C@@H](C)n2nc3c(c2C1=O)CN(C(=O)c1ccc(Cl)c(Cl)c1)[C@H](C)C3 (single isomer, unassigned) [Compound 65B, (3R,7R)-2-(3,4-dichlorobenzoyl)-3,7-dimethyl-9-((S*)-1-(pyridin-2-yl)ethyl)-1,2,3,4,8,9-hexahydropyrido[4′,3′:3,4]pyrazolo[1,5-a]pyrazin-10(7H)-one]	0.046 µM	> 50 µM	2.02 h	–
CC(c1ccc(C2(O)CC2)cc1)N1C[C@@H](C)n2nc3c(c2C1=O)CN(C(=O)c1ccc(Cl)c(C#N)c1)[C@H](C)C3 (single isomer, unassigned) [Compound 14B, 2-Chloro-5-((3R,7R)-9-((S*)-1-(4-(1-hydroxycyclopropyl)phenyl)ethyl)-3,7-dimethyl-10-oxo-1,2,3,4,7,8,9,10-octahydropyrido[4′,3′:3,4]pyrazolo[1,5-a]pyrazine-2-carbonyl)benzonitrile]	0.015 µM	> 50 µM	1.17 h	–
CC(c1ccc(N2CCCS2(=O)=O)nc1)N1C[C@@H](C)n2nc3c(c2C1=O)CN(C(=O)c1ccc(Cl)c(C(F)(F)F)c1)[C@H](C)C3 (single isomer, unassigned) [Compound 28B, (3R,7R)-2-(4-chloro-3-(trifluoromethyl)benzoyl)-9-((S*)-1-(6-(1,1-dioxidoisothiazolidin-2-yl)pyridin-3-yl)ethyl)-3,7-dimethyl-1,2,3,4,8,9-hexahydropyrido[4′,3′: 3,4]pyrazolo[1,5-a]pyrazin-10(7H)-one]	0.011 µM	> 50 µM	2.37 h	–
CC(c1cn(C2CC2)c(=O)cn1)N1C[C@@H](C)n2nc3c(c2C1=O)CN(C(=O)c1ccc(Cl)c(Cl)c1)[C@H](C)C3 (single isomer, unassigned) [Compound 56B, (3R,7R)-9-((S*)-1-(4-cyclopropyl-5-oxo-4,5-dihydropyrazin-2-yl)ethyl)-2-(3,4-dichlorobenzoyl)-3,7-dimethyl-1,2,3,4,8,9-hexahydropyrido[4′,3′:3,4]pyrazolo[1,5-a]pyrazin-10(7H)-one]	0.084 µM	> 50 µM	1.53 h	–
CC(c1cnc(C(C)(C)O)nc1)N1C[C@@H](C)n2nc3c(c2C1=O)CN(C(=O)c1ccc(Cl)c(Cl)c1)[C@H](C)C3 (single isomer, unassigned) [Compound 36B, (3R,7R)-2-(3,4-Dichlorobenzoyl)-9-((S*)-1-(2-(2-hydroxypropan-2-yl)pyrimidin-5-yl)ethyl)-3,7-dimethyl-1,2,3,4,8,9-hexahydropyrido[4′,3′:3,4]pyrazolo[1,5-a]pyrazin-10(7H)-one]	0.029 µM	> 50 µM	>3 h	–
CC(c1ccc(C(C)(C)O)cc1)N1C[C@@H](C)n2nc3c(c2C1=O)CN(C(=O)c1ccc(Cl)c(Cl)c1)[C@H](C)C3 (single isomer, unassigned) [Compound 8B, (3R,7R)-2-(3,4-dichlorobenzoyl)-9-((S*)-1-(4-(2-hydroxypropan-2-yl)phenyl)ethyl)-3,7-dimethyl-1,2,3,4,8,9-hexahydropyrido[4′,3′:3,4]pyrazolo[1,5-a]pyrazin-10(7H)-one]	0.009 µM	18.7 µM	>3 h	–
CC(c1cnc(C(C)(C)O)cn1)N1C[C@@H](C)n2nc3c(c2C1=O)CN(C(=O)c1ccc(Cl)c(C(F)(F)F)c1)[C@H](C)C3 (single isomer, unassigned) [Compound 41B, (3R,7R)-2-(4-chloro-3-(trifluoromethyl)benzoyl)-9-((S*)-1-(5-(2-hydroxypropan-2-yl)pyrazin-2-yl)ethyl)-3,7-dimethyl-1,2,3,4,8,9-hexahydropyrido[4′,3′:3,4]pyrazolo[1,5-a]pyrazin-10(7H)-one]	0.014 µM	> 50 µM	1.65 h	–
CC(c1ccc(-c2ccn(C)n2)cc1)N1C[C@@H](C)n2nc3c(c2C1=O)CN(C(=O)c1ccc(Cl)c(C#N)c1)[C@H](C)C3 (single isomer, unassigned) [Compound 21B, 2-Chloro-5-((3R,7R)-3,7-dimethyl-9-((S*)-1-(4-(1-methyl-1H-pyrazol-3-yl)phenyl)ethyl)-10-oxo-1,2,3,4,7,8,9,10-octahydropyrido[4′,3′:3,4]pyrazolo[1,5-a]pyrazine-2-carbonyl)benzonitrile]	0.012 µM	> 50 µM	2.5 h	–
C[C@@H]1Cc2nn3c(c2CN1C(=O)c1ccc(Cl)c(C(F)(F)F)c1)C(=O)N([C@@H](C)c1ccc([S@@]2(=O)=NCCC2)nc1)C[C@H]3C (relative stereo) [Compound 30B, (3R,7R)-2-(4-chloro-3-(trifluoromethyl)benzoyl)-3,7-dimethyl-9-((S*)-1-(6-((R*)-1-oxido-4,5-dihydro-3H-116-isothiazol-1-yl)pyridin-3-yl)ethyl)-1,2,3,4,8,9-hexahydropyrido[4′,3′:3,4]pyrazolo[1,5-a]pyrazin-10(7H)-one]	0.074 µM	> 50 µM	0.315 h	–
CC(c1ccc(=O)n(C)n1)N1C[C@@H](C)n2nc3c(c2C1=O)CN(C(=O)c1ccc(Cl)c(Cl)c1)[C@H](C)C3 (single isomer, unassigned) [Compound 55B, (3R,7R)-2-(3,4-dichlorobenzoyl)-3,7-dimethyl-9-((S*)-1-(1-methyl-6-oxo-1,6-dihydropyridazin-3-yl)ethyl)-1,2,3,4,8,9-hexahydropyrido[4′,3′:3,4]pyrazolo[1,5-a]pyrazin-10(7H)-one]	0.06 µM	> 50 µM	>3 h	–
CC(c1cnc(C(F)(F)F)cn1)N1C[C@@H](C)n2nc3c(c2C1=O)CN(C(=O)c1ccc(Cl)c(Cl)c1)[C@H](C)C3 (single isomer, unassigned) [Compound 7A, (3R,7R)-2-(3,4-dichlorobenzoyl)-3,7-dimethyl-9-((R*)-1-(5-(trifluoromethyl)pyrazin-2-yl)ethyl)-1,2,3,4,8,9-hexahydropyrido[4′,3′:3,4]pyrazolo[1,5-a]pyrazin-10(7H)-one]	0.52 µM	44.8 µM	–	> 3 h
CC(c1ccc(NS(C)(=O)=O)cn1)N1C[C@@H](C)n2nc3c(c2C1=O)CN(C(=O)c1ccc(Cl)c(C(F)(F)F)c1)[C@H](C)C3 (single isomer, unassigned) [Compound 33B, N-(6-((S*)-1-((3R,7R)-2-(4-chloro-3-(trifluoromethyl)benzoyl)-3,7-dimethyl-10-oxo-1,3,4,7,8,10-hexahydropyrido[4′,3′:3,4]pyrazolo[1,5-a]pyrazin-9(2H)-yl)ethyl)pyridin-3-yl)methanesulfonamide]	0.043 µM	> 50 µM	>3 h	–
CNC(=O)C1(Oc2ccc(C(C)N3C[C@@H](C)n4nc5c(c4C3=O)CN(C(=O)c3ccc(Cl)c(C#N)c3)[C@H](C)C5)cc2)CC1 (single isomer, unassigned) [Compound 13B, 1-(4-((S*)-1-((3R,7R)-2-(4-chloro-3-cyanobenzoyl)-3,7-dimethyl-10-oxo-1,2,3,4,7,8-hexahydropyrido[4′,3′:3,4]pyrazolo[1,5-a]pyrazin-9(10H)-yl)ethyl)phenoxy)-N-methylcyclopropanecarboxamide]	0.091 µM	> 50 µM	2.15 h	–
CC(c1ccc(C(C)(C)O)nc1)N1C[C@@H](C)n2nc3c(c2C1=O)CN(C(=O)c1ccc(Cl)c(C#N)c1)[C@H](C)C3 (single isomer, unassigned) [Compound 63B, 2-chloro-5-((3R,7R)-9-((S*)-1-(6-(2-hydroxypropan-2-yl)pyridin-3-yl)ethyl)-3,7-dimethyl-10-oxo-1,2,3,4,7,8,9,10-octahydropyrido[4′,3′:3,4]pyrazolo[1,5-a]pyrazine-2-carbonyl)benzonitrile]	0.052 µM	> 50 µM	>3 h	–
C[C@@H]1Cc2nn3c(c2CN1C(=O)c1ccc(Cl)c(C(F)(F)F)c1)C(=O)N([C@H](C)c1ccc([S@](C)(=O)=NC#N)cc1)C[C@H]3C (relative stereo) [Compound 20B, N—((S*)-(4-((R*)-1-((3R,7R)-2-(4-chloro-3-(trifluoromethyl)benzoyl)-3,7-dimethyl-10-oxo-1,3,4,7,8,10-hexahydropyrido[4′,3′:3,4]pyrazolo[1,5-a]pyrazin-9(2H)-yl)ethyl)phenyl)(methyl)(oxo)-16-sulfaneylidene)cyanamide]	0.089 µM	> 50 µM	2.6 h	–
CC(c1ccc(S(C)(=O)=O)cc1)N1C[C@@H](C)n2nc3c(c2C1=O)CN(C(=O)c1ccc(Cl)c(Cl)c1)[C@H](C)C3 (single isomer, unassigned) [Compound 15B, (3R,7R)-2-(3,4-dichlorobenzoyl)-3,7-dimethyl-9-((S*)-1-(4-(methylsulfonyl)phenyl)ethyl)-1,2,3,4,8,9-hexahydropyrido[4′,3′:3,4]pyrazolo[1,5-a]pyrazin-10(7H)-one]	0.019 µM	> 50 µM	>3 h	–
CC(c1ccc(C(F)(F)F)nc1)N1C[C@@H](C)n2nc3c(c2C1=O)CN(C(=O)c1ccc(Cl)c(C#N)c1)[C@H](C)C3 (single isomer, unassigned) [Compound 12B, 2-Chloro-5-((3R,7R)-3,7-dimethyl-10-oxo-9-((S*)-1-(6-(trifluoromethyl)pyridin-3-yl)ethyl)-1,2,3,4,7,8,9,10-octahydropyrido[4′,3′:3,4]pyrazolo[1,5-a]pyrazine-2-carbonyl)benzonitrile]	0.068 µM	> 50 µM	>3 h	–
